Assay results reported in patent publication US20260219274A1, “POLYOL SWEETNERS AND CARDIOVASCULAR AND THROMBOTIC EVENT RISK” (THE CLEVELAND CLINIC FOUNDATION, priority 2023, published 2026).

How the values were obtained:
[1] = set-up: species or system mice; details: mouse, in vivo
Description: FIG. 11. […] Mice were gavaged with roughly molar equivalent levels of either xylitol alone (500 mg/kg in water) or erythritol alone (400 mg/kg), or both compounds (500 mg/kg xylitol and 400 mg/kg erythritol). Time-dependent changes in levels of xylitol and erythritol were quantified using LC-MS/MS in plasma (Panel A), urine (Panel B), and feces (Panel C) for the three groups of mice. At baseline, both xylitol and erythritol are present in mouse plasma at low levels (0.5-1.0 μM). […] Reported is content of xylitol and erythritol per ug of wet feces.
Stable-isotope-dilution LC-MS/MS was developed to specifically quantify xylitol in human and mouse plasma, urine and feces (fecal pellets were dissolved in water and supernatant subjected to LC-MS/MS). Ice cold methanol (800 μL) and internal standard (^13C2-arabitol) were added to the plasma samples (20 μL) or urine (20 μL) previously diluted in MQ water, followed by vortexing and centrifuging (21,000×g; 4° C. for 15 min). The clear supernatant (800 μL) was transferred into a clean, labeled glass tubes (Borosilicate glass 12×75 mm) and dried in a speed vacuum concentrator (Speed vac plus, SC210, Thermo Sevant). Acetylation was used since xylitol is poorly ionizable in order to achieve better retention on the reverse phase column and separation from other structural isomers as well as better ionization to achieve better sensitivity. The dry residue was reconstituted in acetic anhydride (100 μL) and 4-Dimethylaminopyridine (DMAP) in pyridine (100 μl; 1 mg/mL), sealed with safety caps, vortexed and heated (45 min at 80° C.) followed with drying under nitrogen. Dried residues were dissolved in HCl in water (0.1 M; 0.5 mL) and extracted with ethylacetate (2.0 mL). Ethylacetate layer was transferred into a clean glass tube (Borosilicate glass 12×75 mm) and dried under nitrogen. The dry residue was reconstituted in ammonium formate in a mixture of methanol:water (100 μL; 50:50 v/v with 10 mM ammonium formate), tubes were vortexed and liquid was transferred to glass vials with micro-insets and caped. LC-MS/MS analysis was performed on a chromatographic system consisting of two Shimadzu LC-30 AD pumps (Nexcra X2), a CTO 20AC oven operating at 30° C., and a SIL-30 AC-MP autosampler in tandem with a triple quadruple mass spectrometer (8050 series, Shimadzu Scientific Instruments, Inc., Columbia, MD, USA). For chromatographic separation, a Kinetex C18 column (50 mm×2.1 mm; 2.6 μm) (Cat #00B-4462-AN, Phenomenex, Torrance, CA) was used. […] Accuracy and precision of the method to quantify xylitol (separated from its structural isomers arabitol and ribitol) were assessed by a standard addition method of pure synthetic standard into different plasma pools. The accuracy of xylitol measurement was determined by the method of standard additions^12 using three different plasma pools, and was 2.4-2.8%. Intra- and inter-day coefficients of variation (CVs), measured by multiple analysis of three different control samples, were 1.2-8.9% and 10.9-11.5%, respectively. Freeze/thaw stability was determined over the five cycles and it was less than 7% for xylitol. The limit of quantification (LOQ) was defined (by convention) as the level at which xylitol was measured within the matrix (plasma) with a peak having signal-to-noise-ratio of 10:1. Limit of detection (LOD) was determined to be the lowest concentration of xylitol in the sample with a signal-to-noise ratio ≥3. […]

washed human platelets = experiment: Platelet flow cytometry assay (P-selectin, PAC-1); type: cell-based; details: for ADP-stimulated P-selectin surface expression / ADP-stimulated glycoprotein α2β3 (GP IIb/IIIa) activation: pre-incubation with the polyol, ADP 2 μM
Description: Antibody staining of washed platelets for flow cytometry was performed as described previously^41 with further information outlined in additional methods. […]
Washed platelets and antibody staining for flow cytometry was performed as described previously using sodium citrate (0.109 M) as anti-coagulant^51. Washed platelets were separated by centrifugation at 500×g for 10 min and re-suspended in modified Hank's buffered salt solution without PGE1. Final platelet suspensions (100 μL; 2×10^8 platelets/mL) were then pre-incubated with erythritol, glucose or 1,5-AHG (at indicated concentrations) for 30 min at 22° C. Platelets were then stimulated with 2 μM ADP for 10 min and incubated with PE conjugated anti-P-selectin (CD62P-PE, Catalogue #555524, BD PharMingen, San Diego, CA, USA; 2.5 μL/100 μL) or Fluorescein isothiocyanate (FITC) conjugated PAC1 (binds only to active conformation of GP IIb/IIIa, Catalogue #3 40507, BD PharMingen, San Diego, CA, USA; 5 μL/100 μL) or isotype control antibody (PE IgG isotype control, Catalogue #555749 or FITC IgM Isotype control, Catalogue #555583, BD PharMingen, San Diego, CA, USA) in the dark for 20 min. The platelet suspensions were then fixed with 100 μL of 2% paraformaldehyde. Data was acquired on a flow cytometer (FACS LSR Fortessa, BD Biosciences, Franklin Lakes, New Jersey, USA). Twenty thousand (20,000) events were collected. The data was analyzed with FACSDiva Software (v.9.0) (BD Biosciences). Platelets were gated to exclude doublets (FIG. 28) and the raw mean fluorescent intensity (MFI) of either P-selectin (CD62P) or PAC-1 was quantified.

SMILES | baseline plasma level [1] | postprandial increase in urine [1] | recovery in feces [1] | ADP-stimulated P-selectin surface expression (washed human platelets) | ADP-stimulated glycoprotein α2β3 (GP IIb/IIIa) activation (washed human platelets) | oral absorption in mice ([1]; po) | erythritol concentration eliciting significant stimulus-dependent enhancement in P-selectin surface expression (washed human platelets; threshold, FIG. 17) | erythritol concentration eliciting significant stimulus-dependent enhancement in activated GP IIbIIIa surface expression (washed human platelets; threshold, FIG. 17)
OC[C@@H](O)[C@H](O)[C@@H](O)CO [xylitol] | 0.5 to 1.0 µM | Significant xylitol increases also were not observed | the majority of xylitol is recovered in feces | dose-dependent enhancement | dose-dependent enhancement | – | – | –
OC[C@@H](O)[C@@H](O)CO [erythritol] | 0.5 to 1.0 µM | – | – | dose-dependent enhancement | dose-dependent enhancement | rapidly absorbed | 18 µM | 4.5 µM
